Experimental findings from ChEMBL document CHEMBL4765232 (J Med Chem, 2016) are described below.

Each structure is given as a SMILES string. Where only a bound is given, the exact number is not on record here.

The target in data set [1] is T1, Histone-lysine N-methyltransferase EZH2 (Homo sapiens, UniProt Q15910). The experiment in a line: Inhibition of wild-type EZH2 in PRC2 complex (unknown origin) using RKQLATKAARK(Me3)SAPATGGVKKP-NH2 peptide substrate preincubated for 30 mins followed by addition of [3H]-SAM measured after 2 hrs by Topcount scintillation proximity assay. In general terms: SPA uses beads or plates that emit light when radiolabelled molecules are held near them.

Data set [2] addresses T1, Histone-lysine N-methyltransferase EZH2. Nature of the data set: Inhibition of EZH2 in human HeLa cells assessed as inhibition of trimethylation of H3K27 after 72 hrs by AlphaLISA assay. The class given is cell-based.
The target in another data set is CYP3A4 (Homo sapiens, UniProt P08684). The experiment in a line: Inhibition of CYP3A4 (unknown origin) at 10 uM relative to control. The class given is ADME.
Data set [3] can be described thus: Intrinsic clearance in human liver microsomes assessed per mg protein. The data set is classed as ADME, Microsome. In general terms: Microsomes from liver hold many membrane-bound enzymes, among them those of drug oxidation.
Data set [4] can be described thus: Intrinsic clearance in mouse liver microsomes assessed per mg protein. The data set is classed as ADME, Microsome.
Data set [5] is described as follows: Protein binding in mouse plasma assessed as bound fraction. The class given is ADME, cell-free. To be noted: for fraction unbound: read-out: PPB (converted).
A further data set deals with T2, CYP2C8 (Homo sapiens, UniProt P10632).
T2 sequence (P10632 whole entry): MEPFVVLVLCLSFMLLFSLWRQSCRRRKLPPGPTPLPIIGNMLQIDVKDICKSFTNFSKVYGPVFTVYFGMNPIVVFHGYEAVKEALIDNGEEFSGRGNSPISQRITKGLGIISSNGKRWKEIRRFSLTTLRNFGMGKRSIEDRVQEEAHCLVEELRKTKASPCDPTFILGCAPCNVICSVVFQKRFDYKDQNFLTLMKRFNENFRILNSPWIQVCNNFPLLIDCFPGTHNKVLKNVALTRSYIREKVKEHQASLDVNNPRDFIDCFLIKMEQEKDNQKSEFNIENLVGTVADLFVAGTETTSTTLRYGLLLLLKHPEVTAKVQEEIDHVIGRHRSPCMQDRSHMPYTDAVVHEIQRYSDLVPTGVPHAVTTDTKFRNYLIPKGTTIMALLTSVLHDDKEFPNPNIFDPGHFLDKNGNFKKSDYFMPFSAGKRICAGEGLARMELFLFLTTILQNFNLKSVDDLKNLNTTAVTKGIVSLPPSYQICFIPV
The experiment in a line: Inhibition of CYP2C8 (unknown origin) at 10 uM relative to control. The data set is classed as ADME.

The next data set deals with CYP2D6 (Homo sapiens, UniProt P10635). Nature of the data set: Inhibition of CYP2D6 (unknown origin) at 10 uM relative to control. The data set is classed as ADME.
Data set [6] in a line: Intrinsic clearance in dog liver microsomes assessed per mg protein. The data set is classed as ADME, Canis lupus familiaris, Microsome.
The target of another data set is CYP2C9 (Homo sapiens, UniProt P11712). Nature of the data set: Inhibition of CYP2C9 (unknown origin) at 10 uM relative to control. The class given is ADME.
Data set [7] in a line: Protein binding in human plasma assessed as bound fraction. The data set is classed as ADME, cell-free. To be noted: read-out: PPB (converted).
The target in a further data set is T3, CYP1A2 (Homo sapiens, UniProt P05177).
T3 sequence (P05177 whole entry): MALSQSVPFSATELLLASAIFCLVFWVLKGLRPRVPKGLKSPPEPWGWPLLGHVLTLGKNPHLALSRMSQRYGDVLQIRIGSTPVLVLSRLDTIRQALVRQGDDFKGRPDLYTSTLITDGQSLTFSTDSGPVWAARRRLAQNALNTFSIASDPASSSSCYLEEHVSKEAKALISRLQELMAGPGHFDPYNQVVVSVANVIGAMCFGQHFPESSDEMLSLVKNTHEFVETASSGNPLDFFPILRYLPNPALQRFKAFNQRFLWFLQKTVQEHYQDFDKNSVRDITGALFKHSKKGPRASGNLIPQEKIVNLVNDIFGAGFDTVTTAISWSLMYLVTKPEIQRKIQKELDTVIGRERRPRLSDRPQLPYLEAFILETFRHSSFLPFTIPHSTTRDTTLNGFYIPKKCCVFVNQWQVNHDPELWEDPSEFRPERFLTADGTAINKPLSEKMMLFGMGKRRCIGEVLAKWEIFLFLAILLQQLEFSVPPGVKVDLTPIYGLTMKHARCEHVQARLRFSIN
The experiment in a line: Inhibition of CYP1A2 (unknown origin) at 10 uM relative to control. The class given is ADME.

The nature of data set [8]: Intrinsic clearance in rat liver microsomes assessed per mg protein. The class given is ADME, Microsome.
Data set [9] is described as follows: Protein binding in rat plasma assessed as bound fraction. The data set is classed as ADME, cell-free. To be noted: read-out: PPB (converted).
Data set [10] in a line: Protein binding in dog plasma assessed as bound fraction. The data set is classed as ADME, cell-free, Canis lupus familiaris. To be noted: read-out: PPB (converted).
The nature of data set [11]: Clearance in Balb/c mouse at 1 mg/kg, iv formulated with 5:25:70 DMA/PEG400/20% SBECD. The class given is ADME, organism-based. To be noted: in vivo.
Data set [12] can be described thus: Unbound AUC in Balb/c mouse at 100 mg/kg, po formulated in 0.5 % methyl cellulose maintained at pH 3. The class given is ADME, organism-based. The note with it: in vivo, pH 3, 100 mg/kg.
Data set [13] is described as follows: Unbound Cmax in Balb/c mouse at 100 mg/kg, po formulated in 0.5 % methyl cellulose maintained at pH 3. The note with it: in vivo, pH 3, 100 mg/kg. The data set is classed as ADME, organism-based.
Data set [14] is described as follows: Clearance in Balb/c mouse at 1 mg/kg, iv formulated with 5:25:70 DMA/PEG400/20% SBECD relative to liver blood flow. The class given is ADME, organism-based. To be noted: in vivo.
Data set [15] can be described thus: Volume of distribution at steady in Balb/c mouse at 1 mg/kg, iv formulated with 5:25:70 DMA/PEG400/20% SBECD. The data set is classed as ADME, organism-based. To be noted: in vivo, read-out: Vdss.
Data set [16] is described as follows: Fraction unbound in mouse plasma. The class given is ADME, cell-free.
A short description of data set [17]: AUC (0 to infinity) in Balb/c mouse at 100 mg/kg, po formulated in 0.5 % methyl cellulose maintained at pH 3. The class given is ADME, organism-based. More on the design: time infinity, route oral, dose 100 mg/kg. The note with it: in vivo, pH 3, 100 mg/kg.
The nature of data set [18]: Oral bioavailability in Balb/c mouse at 100 mg/kg formulated in 0.5 % methyl cellulose maintained at pH 3. The data set is classed as ADME, organism-based. To be noted: in vivo, pH 3, 100 mg/kg.
A short description of data set [19]: Half life in Balb/c mouse plasma at 1 mg/kg, iv formulated with 5:25:70 DMA/PEG400/20% SBECD. The data set is classed as ADME, organism-based.
Data set [20] is described as follows: Cmax in Balb/c mouse at 100 mg/kg, po formulated in 0.5 % methyl cellulose maintained at pH 3. More on the design: route oral, dose 100 mg/kg. To be noted: in vivo, pH 3, 100 mg/kg. The data set is classed as ADME, organism-based.
Data set [21] can be described thus: Tmax in Balb/c mouse at 100 mg/kg, po formulated in 0.5 % methyl cellulose maintained at pH 3. The class given is ADME, organism-based. The note with it: in vivo, pH 3, 100 mg/kg.
Data set [22] is described as follows: Unbound clearance in Balb/c mouse at 1 mg/kg, iv formulated with 5:25:70 DMA/PEG400/20% SBECD. The data set is classed as ADME, organism-based. The note with it: in vivo.

T1 sequence (Q15910 whole entry): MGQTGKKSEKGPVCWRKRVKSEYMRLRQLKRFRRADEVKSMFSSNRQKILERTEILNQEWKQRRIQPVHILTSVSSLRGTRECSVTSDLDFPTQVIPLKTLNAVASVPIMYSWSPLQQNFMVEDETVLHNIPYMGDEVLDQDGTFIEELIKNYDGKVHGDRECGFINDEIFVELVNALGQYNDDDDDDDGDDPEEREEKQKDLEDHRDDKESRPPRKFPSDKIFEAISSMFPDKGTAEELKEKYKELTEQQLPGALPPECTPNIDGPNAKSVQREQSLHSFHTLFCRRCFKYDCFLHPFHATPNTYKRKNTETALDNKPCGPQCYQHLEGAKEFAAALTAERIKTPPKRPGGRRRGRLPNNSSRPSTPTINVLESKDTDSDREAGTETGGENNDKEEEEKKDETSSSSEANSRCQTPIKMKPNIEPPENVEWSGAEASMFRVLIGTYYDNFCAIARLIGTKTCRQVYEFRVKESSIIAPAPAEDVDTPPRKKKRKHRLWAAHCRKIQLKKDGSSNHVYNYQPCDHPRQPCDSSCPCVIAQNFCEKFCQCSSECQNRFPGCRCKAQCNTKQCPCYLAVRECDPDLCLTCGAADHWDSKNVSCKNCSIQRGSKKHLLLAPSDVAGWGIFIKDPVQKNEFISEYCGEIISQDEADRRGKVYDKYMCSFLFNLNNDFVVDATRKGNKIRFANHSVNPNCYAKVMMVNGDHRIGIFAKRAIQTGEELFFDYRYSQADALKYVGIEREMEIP
CYP3A4, sequence (P08684 whole entry): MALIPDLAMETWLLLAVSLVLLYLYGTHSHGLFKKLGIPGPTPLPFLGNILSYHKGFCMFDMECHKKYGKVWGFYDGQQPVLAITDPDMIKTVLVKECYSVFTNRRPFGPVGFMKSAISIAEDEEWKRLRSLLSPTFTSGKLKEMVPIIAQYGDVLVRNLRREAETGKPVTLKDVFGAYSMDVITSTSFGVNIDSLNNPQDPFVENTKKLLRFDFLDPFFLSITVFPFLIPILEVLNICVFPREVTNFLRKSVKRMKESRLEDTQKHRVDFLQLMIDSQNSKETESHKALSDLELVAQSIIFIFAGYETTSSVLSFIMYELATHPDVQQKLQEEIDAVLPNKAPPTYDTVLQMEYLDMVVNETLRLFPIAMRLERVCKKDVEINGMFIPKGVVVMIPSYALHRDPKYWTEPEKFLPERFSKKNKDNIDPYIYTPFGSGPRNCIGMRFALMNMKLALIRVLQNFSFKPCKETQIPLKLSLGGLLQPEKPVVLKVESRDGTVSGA
CYP2D6, sequence (P10635 whole entry): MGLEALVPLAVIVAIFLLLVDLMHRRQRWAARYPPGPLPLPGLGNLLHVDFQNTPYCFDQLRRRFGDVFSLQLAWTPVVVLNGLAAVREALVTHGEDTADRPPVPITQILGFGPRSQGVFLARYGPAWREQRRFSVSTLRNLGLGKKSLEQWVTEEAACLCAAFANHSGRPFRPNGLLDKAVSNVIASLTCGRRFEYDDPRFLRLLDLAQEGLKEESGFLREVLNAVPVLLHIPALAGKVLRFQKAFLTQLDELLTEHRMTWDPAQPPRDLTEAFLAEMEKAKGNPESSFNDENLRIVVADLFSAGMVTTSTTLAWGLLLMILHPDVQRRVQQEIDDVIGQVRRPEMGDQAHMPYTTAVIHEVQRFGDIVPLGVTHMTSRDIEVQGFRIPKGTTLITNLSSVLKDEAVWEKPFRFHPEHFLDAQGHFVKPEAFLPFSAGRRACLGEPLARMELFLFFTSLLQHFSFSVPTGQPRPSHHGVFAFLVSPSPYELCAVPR
CYP2C9, sequence (P11712 whole entry): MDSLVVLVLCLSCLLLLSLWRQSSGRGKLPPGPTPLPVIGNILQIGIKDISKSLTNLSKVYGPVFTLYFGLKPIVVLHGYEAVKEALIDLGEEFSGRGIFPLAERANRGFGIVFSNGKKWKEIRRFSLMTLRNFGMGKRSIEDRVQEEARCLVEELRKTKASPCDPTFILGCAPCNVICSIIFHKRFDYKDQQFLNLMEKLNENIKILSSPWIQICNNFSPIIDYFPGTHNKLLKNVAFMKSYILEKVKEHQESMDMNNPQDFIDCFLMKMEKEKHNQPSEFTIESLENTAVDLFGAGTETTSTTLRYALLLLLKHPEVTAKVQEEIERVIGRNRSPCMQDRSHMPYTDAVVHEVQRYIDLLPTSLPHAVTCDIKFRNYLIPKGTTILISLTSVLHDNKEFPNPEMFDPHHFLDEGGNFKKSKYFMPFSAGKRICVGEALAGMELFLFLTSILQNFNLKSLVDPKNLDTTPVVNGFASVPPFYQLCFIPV

On to `COc1cc(C)[nH]c(=O)c1CNC(=O)c1c(C)n([C@H](C)C2CCN(C(=O)N(C)C)CC2)c2ccccc12`, for which 3.3 nM corresponded to half-maximal inhibition in data set [1] (IC50). The EC50 (as a rule, the midpoint of the concentration-response curve) in [2] was determined as 930 nM.
For `COc1cc(C)[nH]c(=O)c1CNC(=O)c1c(C)n([C@H](C)C2CCN(C(=O)OC(C)C)CC2)c2ccccc12`, in that order: under 1 nM and 110 nM.
For `CCOC(=O)CN1CCC([C@@H](C)n2c(C)c(C(=O)NCc3c(OC)cc(C)[nH]c3=O)c3ccccc32)CC1`, in that order: under 1 nM and 260 nM.
On to `COc1cc(C)[nH]c(=O)c1CNC(=O)c1c(C)n([C@H](C)C2CCN(CC(F)(F)C(F)F)CC2)c2ccccc12`, for which, in data set [1], the IC50 (commonly the midpoint of a concentration-inhibition curve) came to 1.6 nM. Moreover, the EC50 in [2] turned out to be 38 nM.
With `COc1cc(C)[nH]c(=O)c1CNC(=O)c1c(C)n([C@H](C)C2CCN(CC(C)(F)F)CC2)c2ccccc12`, the inhibition – broadly, the share of the control response that was lost under treatment – at 10 µM against CYP3A4 was found to be 0%; at CYP2C8, 50.9%; against CYP2D6, 7.7%; at CYP2C9, 5%; on CYP1A2 it was 0%. Further, the CLH amounted to 83.8 µL/min in data set [3], 193 µL/min in data set [4], 68.9 µL/min in [6] and 86.1 µL/min in data set [8]. Further, the fraction unbound in data set [5] is 0.006; in data set [7], 0.053; in data set [9], 0.076; in data set [10], 0.064. In data set [1], this compound registered an IC50 of under 1 nM. The EC50 in data set [2] was determined as 20 nM.
In data set [1], `COc1cc(C)[nH]c(=O)c1CNC(=O)c1c(C)n([C@H](C)C2CCNCC2)c2ccccc12` yielded an IC50 of 2 nM. For the same compound, in [2], the EC50 was 1100 nM.
The compound `COc1cc(C)[nH]c(=O)c1CNC(=O)c1c(C)n([C@H](C)C2CCN(C3COC3)CC2)c2ccccc12` returned an IC50 in data set [1] of under 1 nM. In addition, in data set [2], the EC50 was 150 nM.
In turn, `COc1cc(C)[nH]c(=O)c1CNC(=O)c1c(C)n([C@H](C)C2CCN(C(=O)C(C)C)CC2)c2ccccc12` displayed an IC50 in data set [1] of 2.5 nM. The half-maximal effective concentration (EC50) in data set [2] came out at 420 nM.
For the compound `COc1cc(C)[nH]c(=O)c1CNC(=O)c1c(C)n([C@H](C)C2CCN(CC(F)F)CC2)c2ccccc12`, in data set [11], the clearance (commonly a measure of how efficiently the substance is removed, as volume per time) was 74.2 mL/min/kg. Besides, in [12], the fAUC came to 0.924 µM·h. The fCmax in data set [13] was found to be 1.15 µM. Also, the inhibition at 10 µM amounted to 25.2% on CYP3A4; 18.9% on CYP2C8; 26.1% on CYP2D6; 25.4% on CYP2C9; 28.6% at CYP1A2. The compound also displayed a CL in data set [14] of 82%. Besides, the CLH was 131 µL/min in data set [4], 52.4 µL/min in [6] and 71.3 µL/min in data set [8]. In addition, the PPB in [5] came to 97.8%. In addition, the Vd in data set [15] came to 1.1 L/kg. Also, the Fu in [16] was determined as 0.022%. In data set [17], the area under the curve (AUC) – broadly, concentration integrated over time – came to 42.01 µM·h. Further, the F in [18] stood at 91.6%. In data set [1], this compound came in with an IC50 of 1.8 nM. Also, the fraction unbound was 0.167 in [7], 0.169 in data set [9] and 0.357 in data set [10]. Moreover, in data set [19], the half-life – broadly, the time in which the quantity being followed falls by half – was 24.1 min. In data set [20], the Cmax (commonly the maximum level reached in the sampled fluid or tissue) amounted to 52.1 µM. Besides, the time to peak (Tmax) (usually the time from dosing to the highest level) in data set [21] came out at 15 min. In addition, in [22], the CL free was 202.3 L/h/kg. Further, in data set [2], the EC50 worked out at 39 nM.
`COc1cc(C)[nH]c(=O)c1CNC(=O)c1c(C)n([C@H](C)C2CCN(C)CC2)c2ccccc12` yielded a half-inhibitory concentration (IC50) in data set [1] of under 1 nM. In addition, the concentration giving a half-maximal response (EC50) in [2] was determined as 470 nM.
For `COc1cc(C)[nH]c(=O)c1CNC(=O)c1c(C)n([C@H](C)C2CCN(CCC(F)(F)F)CC2)c2ccccc12`, the inhibition at 10 µM was 5% against CYP3A4; 23.1% against CYP2C8; 17.2% against CYP2D6; 11.6% against CYP2C9; 19.4% on CYP1A2. For the same compound, the CLH turned out to be 35.4 µL/min in [3], 61.3 µL/min in data set [4], 35.3 µL/min in data set [6] and 25.7 µL/min in [8]. Also, the fraction unbound is 0.003 in [5], 0.041 in data set [7], 0.026 in data set [9] and 0.037 in data set [10]. In [1], this compound had an IC50 of 2.3 nM. Further, the EC50 in data set [2] was 290 nM.
